Test results taken from PubChem BioAssay AID248 (DTP/NCI, 2004).
Where “and” joins values, the source holds several entries; their conditions need not be identical. Identical values can stand only once. Toxic doses and inconclusive results are not listed. No stated cut-off is given here; in the data, active means T/C of 150% or more; inactive means T/C below 125%.

Test system: L1210 leukemia ip in BDF1 mice, survival T/C
Test: NCI In Vivo Anticancer Drug Screen. Data for tumor model L1210 Leukemia (intraperitoneal) in B6D2F1 (BDF1) mice
Conditions: higher = longer survival
Summary of the method: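 Mice bearing the transplanted tumor received compound or vehicle. Survival of the treated group was divided by that of the vehicle-treated control group to give the ratio.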

Measured: T/C

CO[C@H]1/C=C/O[C@@]2(C)Oc3c(C)c(O)c4c(O)c(c(/C=N/N5C(C)CN(Cc6ccccc6)CC5C)c(O)c4c3C2=O)NC(=O)/C(C)=C\C=C\[C@H](C)[C@H](O)[C@@H](C)[C@@H](O)[C@@H](C)[C@H](OC(C)=O)[C@@H]1C (stereo partly specified)
inactive: endpoint: mean survival time, dose: 12.5 mg/kg/injection, schedule: Q02DX Z (oral), vehicle: Klucel (hydroxypropylcellulose) (HPC) 100 % of control | endpoint: mean survival time, dose: 25.0 mg/kg/injection, schedule: Q02DX Z (oral), vehicle: Klucel (hydroxypropylcellulose) (HPC) 95 % of control and 98 % of control | endpoint: mean survival time, dose: 50.0 mg/kg/injection, schedule: Q01DX009 (ip), vehicle: Klucel (hydroxypropylcellulose) (HPC) 97 % of control | endpoint: mean survival time, dose: 50.0 mg/kg/injection, schedule: Q02DX Z (oral), vehicle: Klucel (hydroxypropylcellulose) (HPC) 93 % of control and 96 % of control | endpoint: mean survival time, dose: 100.0 mg/kg/injection, schedule: Q01DX009 (ip), vehicle: Klucel (hydroxypropylcellulose) (HPC) 101 % of control | endpoint: mean survival time, dose: 100.0 mg/kg/injection, schedule: Q02DX Z (oral), vehicle: Klucel (hydroxypropylcellulose) (HPC) 100 % of control and 106 % of control | endpoint: mean survival time, dose: 100.0 mg/kg/injection, schedule: Q04DX003 (ip), vehicle: Klucel (hydroxypropylcellulose) (HPC) 97 % of control | endpoint: mean survival time, dose: 200.0 mg/kg/injection, schedule: Q01DX009 (ip), vehicle: Klucel (hydroxypropylcellulose) (HPC) 100 % of control | endpoint: mean survival time, dose: 200.0 mg/kg/injection, schedule: Q02DX Z (oral), vehicle: Klucel (hydroxypropylcellulose) (HPC) 96 % of control and 98 % of control | endpoint: mean survival time, dose: 200.0 mg/kg/injection, schedule: Q04DX003 (ip), vehicle: Klucel (hydroxypropylcellulose) (HPC) 95 % of control | endpoint: mean survival time, dose: 400.0 mg/kg/injection, schedule: Q02DX Z (oral), vehicle: Klucel (hydroxypropylcellulose) (HPC) 107 % of control and 91 % of control | endpoint: mean survival time, dose: 400.0 mg/kg/injection, schedule: Q04DX003 (ip), vehicle: Klucel (hydroxypropylcellulose) (HPC) 103 % of control | endpoint: mean survival time, dose: 800.0 mg/kg/injection, schedule: Q02DX Z (oral), vehicle: Klucel (hydroxypropylcellulose) (HPC) 101 % of control and 104 % of control | endpoint: mean survival time, dose: 1600.0 mg/kg/injection, schedule: Q02DX Z (oral), vehicle: Klucel (hydroxypropylcellulose) (HPC) 95 % of control and 89 % of control | endpoint: median survival time, dose: 6.25 mg/kg/injection, schedule: Q01DX005 (ip), vehicle: other 106 % of control | endpoint: median survival time, dose: 12.5 mg/kg/injection, schedule: Q01DX005 (ip), vehicle: Klucel (hydroxypropylcellulose) (HPC) 110 % of control | endpoint: median survival time, dose: 12.5 mg/kg/injection, schedule: Q01DX005 (ip), vehicle: other 107 % of control | endpoint: median survival time, dose: 12.5 mg/kg/injection, schedule: Q01DX005 (oral), vehicle: other 117 % of control | endpoint: median survival time, dose: 25.0 mg/kg/injection, schedule: Q01DX005 (ip), vehicle: Klucel (hydroxypropylcellulose) (HPC) 101 % of control | endpoint: median survival time, dose: 25.0 mg/kg/injection, schedule: Q01DX005 (ip), vehicle: other 111 % of control | endpoint: median survival time, dose: 25.0 mg/kg/injection, schedule: Q01DX005 (oral), vehicle: Klucel (hydroxypropylcellulose) (HPC) 117 % of control | endpoint: median survival time, dose: 25.0 mg/kg/injection, schedule: Q01DX005 (oral), vehicle: other 114 % of control and 119 % of control | endpoint: median survival time, dose: 25.0 mg/kg/injection, schedule: Q02DX005 (oral), vehicle: other 104 % of control | endpoint: median survival time, dose: 50.0 mg/kg/injection, schedule: Q01DX005 (ip), vehicle: Klucel (hydroxypropylcellulose) (HPC) 97 % of control | endpoint: median survival time, dose: 50.0 mg/kg/injection, schedule: Q01DX005 (ip), vehicle: other 117 % of control | endpoint: median survival time, dose: 50.0 mg/kg/injection, schedule: Q01DX005 (oral), vehicle: Klucel (hydroxypropylcellulose) (HPC) 114 % of control | endpoint: median survival time, dose: 50.0 mg/kg/injection, schedule: Q01DX005 (oral), vehicle: other 93 % of control and 111 % of control | endpoint: median survival time, dose: 50.0 mg/kg/injection, schedule: Q02DX005 (oral), vehicle: other 104 % of control | endpoint: median survival time, dose: 100.0 mg/kg/injection, schedule: Q01DX005 (ip), vehicle: Klucel (hydroxypropylcellulose) (HPC) 106 % of control | endpoint: median survival time, dose: 100.0 mg/kg/injection, schedule: Q01DX005 (ip), vehicle: other 103 % of control | endpoint: median survival time, dose: 100.0 mg/kg/injection, schedule: Q01DX005 (oral), vehicle: Klucel (hydroxypropylcellulose) (HPC) 114 % of control | endpoint: median survival time, dose: 100.0 mg/kg/injection, schedule: Q01DX005 (oral), vehicle: other 93 % of control and 107 % of control | endpoint: median survival time, dose: 100.0 mg/kg/injection, schedule: Q02DX005 (oral), vehicle: other 104 % of control | endpoint: median survival time, dose: 200.0 mg/kg/injection, schedule: Q01DX005 (ip), vehicle: Klucel (hydroxypropylcellulose) (HPC) 92 % of control | endpoint: median survival time, dose: 200.0 mg/kg/injection, schedule: Q01DX005 (oral), vehicle: Klucel (hydroxypropylcellulose) (HPC) 94 % of control and 117 % of control | endpoint: median survival time, dose: 200.0 mg/kg/injection, schedule: Q01DX005 (oral), vehicle: other 98 % of control and 111 % of control | endpoint: median survival time, dose: 200.0 mg/kg/injection, schedule: Q02DX005 (oral), vehicle: Klucel (hydroxypropylcellulose) (HPC) 100 % of control | endpoint: median survival time, dose: 200.0 mg/kg/injection, schedule: Q02DX005 (oral), vehicle: other 119 % of control | endpoint: median survival time, dose: 400.0 mg/kg/injection, schedule: Q01DX005 (ip), vehicle: Klucel (hydroxypropylcellulose) (HPC) 102 % of control | endpoint: median survival time, dose: 400.0 mg/kg/injection, schedule: Q01DX005 (oral), vehicle: Klucel (hydroxypropylcellulose) (HPC) 104 % of control and 114 % of control | endpoint: median survival time, dose: 400.0 mg/kg/injection, schedule: Q02DX005 (oral), vehicle: Klucel (hydroxypropylcellulose) (HPC) 101 % of control | endpoint: median survival time, dose: 800.0 mg/kg/injection, schedule: Q01DX005 (ip), vehicle: Klucel (hydroxypropylcellulose) (HPC) 104 % of control | endpoint: median survival time, dose: 800.0 mg/kg/injection, schedule: Q01DX005 (oral), vehicle: Klucel (hydroxypropylcellulose) (HPC) 101 % of control | endpoint: median survival time, dose: 800.0 mg/kg/injection, schedule: Q02DX005 (oral), vehicle: Klucel (hydroxypropylcellulose) (HPC) 104 % of control | endpoint: median survival time, dose: 1600.0 mg/kg/injection, schedule: Q01DX005 (oral), vehicle: Klucel (hydroxypropylcellulose) (HPC) 104 % of control and 114 % of control | endpoint: median survival time, dose: 1600.0 mg/kg/injection, schedule: Q02DX005 (oral), vehicle: Klucel (hydroxypropylcellulose) (HPC) 119 % of control

CC1CCCC(C)N1C(=O)Nc1cccc(C(F)(F)F)c1 (stereo unspecified)
inactive: endpoint: mean survival time, dose: 100.0 mg/kg/injection, schedule: Q01DX009 (ip), vehicle: gum acacia 108 % of control | endpoint: mean survival time, dose: 200.0 mg/kg/injection, schedule: Q01DX009 (ip), vehicle: gum acacia 103 % of control

CC(=O)Nc1cc([N+](=O)[O-])ccc1OCc1ccccc1
inactive: endpoint: mean survival time, dose: 50.0 mg/kg/injection, schedule: Q01DX001 (ip), vehicle: saline 92 % of control | endpoint: mean survival time, dose: 100.0 mg/kg/injection, schedule: Q01DX001 (ip), vehicle: saline 91 % of control | endpoint: mean survival time, dose: 200.0 mg/kg/injection, schedule: Q01DX001 (ip), vehicle: saline 88 % of control | endpoint: mean survival time, dose: 400.0 mg/kg/injection, schedule: Q01DX001 (ip), vehicle: saline 97 % of control

CC1(C)OC2OC(COC(=S)Sc3ccc([N+](=O)[O-])cc3[N+](=O)[O-])C3OC(C)(C)OC3C2O1 (stereo unspecified)
inactive: endpoint: mean survival time, dose: 6.25 mg/kg/injection, schedule: Q04DX002 (ip), vehicle: saline 95 % of control | endpoint: mean survival time, dose: 12.5 mg/kg/injection, schedule: Q04DX002 (ip), vehicle: saline 98 % of control | endpoint: mean survival time, dose: 25.0 mg/kg/injection, schedule: Q04DX002 (ip), vehicle: saline 106 % of control and 91 % of control | endpoint: mean survival time, dose: 50.0 mg/kg/injection, schedule: Q04DX002 (ip), vehicle: saline 120 % of control | endpoint: mean survival time, dose: 100.0 mg/kg/injection, schedule: Q04DX002 (ip), vehicle: saline 100 % of control

C=CC1CC2C=CC1C2 (stereo unspecified)
inactive: endpoint: mean survival time, dose: 100.0 mg/kg/injection, schedule: Q04DX003 (ip), vehicle: saline 100 % of control | endpoint: mean survival time, dose: 200.0 mg/kg/injection, schedule: Q04DX003 (ip), vehicle: saline 103 % of control | endpoint: mean survival time, dose: 400.0 mg/kg/injection, schedule: Q04DX003 (ip), vehicle: saline 106 % of control

CC(=O)OC(C)(C)/C=C/C(=O)[C@](C)(O)[C@H]1[C@H](O)C[C@@]2(C)[C@@H]3CC=C4[C@@H](CC[C@H](O)C4(C)C)[C@]3(CO)C(=O)C[C@]12C
inactive: endpoint: mean survival time, dose: 0.57 mg/kg/injection, schedule: Q01DX Z (ip), vehicle: saline 106 % of control | endpoint: mean survival time, dose: 0.86 mg/kg/injection, schedule: Q01DX Z (ip), vehicle: saline 106 % of control | endpoint: mean survival time, dose: 1.3 mg/kg/injection, schedule: Q01DX Z (ip), vehicle: saline 112 % of control

CC1(C)N=C(N)N=C(N)N1c1ccc(CCCCc2cccc(S(=O)(=O)F)c2)c(Cl)c1
inactive: endpoint: mean survival time, dose: 6.25 mg/kg/injection, schedule: Q01DX009 (ip), vehicle: saline with Tween-80 106 % of control | endpoint: mean survival time, dose: 12.5 mg/kg/injection, schedule: Q01DX009 (ip), vehicle: saline with Tween-80 104 % of control | endpoint: mean survival time, dose: 25.0 mg/kg/injection, schedule: Q01DX009 (ip), vehicle: saline with Tween-80 113 % of control
